Structures are written as SMILES.

The text below walks through data of patent EP4678638A1, “NEW E3 UBIQUITIN LIGASE LIGAND, PROTEIN DEGRADATION AGENT AND USE THEREOF” (priority 2023, dated 2024).

Assay [1] deals with T1, ALK (Homo sapiens, UniProt Q96SW2+Q9HC35+Q9UM73).
T1 construct: evaluate the effects of the compounds of the present disclosure on the expression of target proteins in cells; endogenous in cells; host or cells: H2228
As to the kind of experiment: Western blot degradation of ALK (H2228 Cell). It is filed as cell-based. Particulars: Table D5. As for the experimental part: Conventional Western blot assay was performed to evaluate the effects of the compounds of the present disclosure on the expression of target proteins in cells.
(1) Cell Seeding and Protein Harvesting: The selected cells were processed according to the cell seeding procedure and protein harvesting procedure in Table III-2. Table III-2 Cell Seeding and Protein Harvesting Procedures
(2) To the collected supernatant, 5X SDS sample loading buffer was added, followed by denaturation at 95°C for 5 minutes. The denatured samples were then separated by SDS-PAGE electrophoresis on a polyacrylamide gel. Proteins were transferred to a nitrocellulose membrane (0.45 µm NC membrane), blocked with blocking buffer at room temperature for 1 hour, and subjected to antibody incubation and development procedures according to the antibody manufacturer's instructions (Cell Signaling Technology).
Half-Maximal Degradation Concentration value (the drug concentration required for degrading proteins by 50%, abbreviated as DC50) reads method: comparing the grayscale values of Western blot bands from drug-treated samples with those from blank DMSO-treated controls, and identifying the drug concentration range at which the grayscale value is half that of the DMSO-treated control bands.
DC50 values can be calculated using ImageJ software to measure grayscale values of Western blot bands from drug-treated samples. The concentration-response curve is fitted to estimate the drug concentration corresponding to half the grayscale value.
Target protein remaining (%) refers to the percentage of target protein remaining in hPBMC cells after treatment with protein degrader compounds.
Calculation method for target protein remaining (%): Use ImageJ software to measure grayscale values of Western blot bands from drug (protein degrader)-treated samples. The grayscale value of drug-treated bands is divided by that of internal control protein bands, and the resulting quotient is normalized to obtain the relative percentage of remaining target protein after protein degrader treatment.
Target protein degradation rate (%) = 100% - target protein remaining (%).
(A western blot detects proteins with antibodies after separation by electrophoresis.)

For assay [2], the system named is H2228. As to the kind of experiment: CCK-8 proliferation, NCI-H2228 (H2228). It counts as cell-based. Particulars: Homo sapiens, NCI-H2228; Table B6, compounds designed based on the ALK inhibitors; H2228 cells; read-out: Inhibitory activity (IC50, nM) on tumor cell proliferation, H2228. On the procedure: The tumor cells used herein were cultured in a cell culture medium listed in table A1 at 37°C in an incubator with 5% CO2. Prior to experimentation, all cell lines used were correctly identified by STR profiling, and tested negative for mycoplasma contamination using a mycoplasma detection kit through routine screenings. Table A1. Tumor cells and cell culture medium used in the present disclosure
IC50 values of the compounds of the present disclosure (including the compounds in Table 1, and compounds of examples) were measured using the Meilun Cell Counting Kit-8 kit from Dalian Meilun Biotech Co., Ltd. Assay details are as follows: tumor cells were seeded in a 96-well plate at a density listed in Table A2. After 24h, 100 µL of the inoculated cells were treated with 0.5µL of the compounds of the present disclosure (including the compounds in Tables 1 and 2, and compounds of examples) at 10 different successively decreasing concentrations (starting at the highest concentration of 10µM; 5-fold serial dilutions). After the cells were treated with the compounds of the present disclosure for a period of time, the cell viability detection reagent was added to the culture medium for cell viability assessment according to the instructions provided with the CCK-8 kit. […] The growth inhibition of the compounds of the present disclosure on cells was plotted by Prism Graphpad software, and the IC50 values of the compounds of the present disclosure were calculated therefrom. […] Seeding protocol and treatment time for tumor cells

The subject of assay [3] is SR. As to the kind of experiment: CCK-8 proliferation, SR. It is filed as cell-based, Human. Particulars: Homo sapiens; Table B6, compounds designed based on the ALK inhibitors; SR cells; read-out: Inhibitory activity (IC50, nM) on tumor cell proliferation, SR. The method, boiled down: (§1)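 CCK-8 viability readout; IC50 from growth-inhibition curve fitting. Cells plated, dosed 24h later with a 10-point series, top 10µM, 5-fold steps. Culture at 37°C, 5% CO2.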

Assay [4] concerns H1975. As to the kind of experiment: CCK-8 proliferation, NCI-H1975 (H1975). It counts as cell-based, Human. As to conditions: Homo sapiens, NCI-H1975; Table B6, compounds designed based on the ALK inhibitors; H1975 cells; read-out: Inhibitory activity (IC50, nM) on tumor cell proliferation, H1975. The method, boiled down:
as §1

For assay [5], the system named is MCF7. As to the kind of experiment: CCK-8 proliferation, MCF7 (MCF-7). It counts as cell-based. As to conditions: Homo sapiens, MCF7; Table B6, compounds designed based on the ALK inhibitors; MCF-7 cells; read-out: Inhibitory activity (IC50, nM) on tumor cell proliferation, MCF-7. The method, boiled down: as §1

T1 sequence (Q9HC35+Q9UM73 fused): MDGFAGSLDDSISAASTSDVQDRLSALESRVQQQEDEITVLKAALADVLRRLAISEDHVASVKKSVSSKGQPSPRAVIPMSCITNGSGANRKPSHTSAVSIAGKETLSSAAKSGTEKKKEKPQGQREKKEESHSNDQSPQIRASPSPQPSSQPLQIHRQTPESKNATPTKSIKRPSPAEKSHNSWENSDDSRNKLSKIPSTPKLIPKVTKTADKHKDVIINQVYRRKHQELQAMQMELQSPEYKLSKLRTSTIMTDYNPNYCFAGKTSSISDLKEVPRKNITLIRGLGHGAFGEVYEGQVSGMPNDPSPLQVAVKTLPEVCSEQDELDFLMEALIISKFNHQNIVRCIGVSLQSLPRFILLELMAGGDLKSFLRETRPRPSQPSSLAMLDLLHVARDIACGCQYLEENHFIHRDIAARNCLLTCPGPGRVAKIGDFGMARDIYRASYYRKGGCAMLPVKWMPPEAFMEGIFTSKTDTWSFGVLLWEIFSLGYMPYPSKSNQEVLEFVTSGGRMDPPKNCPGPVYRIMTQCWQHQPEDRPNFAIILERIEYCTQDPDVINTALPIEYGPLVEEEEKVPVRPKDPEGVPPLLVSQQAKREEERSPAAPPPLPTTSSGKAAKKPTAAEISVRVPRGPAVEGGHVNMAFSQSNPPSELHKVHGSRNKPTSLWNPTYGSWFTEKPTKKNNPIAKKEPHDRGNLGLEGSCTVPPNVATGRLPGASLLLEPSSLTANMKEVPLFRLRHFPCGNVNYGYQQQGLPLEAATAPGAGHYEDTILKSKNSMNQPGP
T1 sequence (Q96SW2 whole entry): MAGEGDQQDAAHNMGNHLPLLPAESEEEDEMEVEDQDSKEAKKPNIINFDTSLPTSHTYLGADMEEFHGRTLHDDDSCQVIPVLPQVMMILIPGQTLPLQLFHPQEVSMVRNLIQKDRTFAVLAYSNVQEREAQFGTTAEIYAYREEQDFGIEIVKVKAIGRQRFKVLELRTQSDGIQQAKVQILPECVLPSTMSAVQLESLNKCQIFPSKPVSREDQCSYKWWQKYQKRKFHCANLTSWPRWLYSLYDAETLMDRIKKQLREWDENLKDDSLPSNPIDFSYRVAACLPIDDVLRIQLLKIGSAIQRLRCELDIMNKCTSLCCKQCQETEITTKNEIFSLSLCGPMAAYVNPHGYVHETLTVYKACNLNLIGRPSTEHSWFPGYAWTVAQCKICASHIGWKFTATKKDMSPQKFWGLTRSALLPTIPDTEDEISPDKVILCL
T1 sequence (Q16531 whole entry partner): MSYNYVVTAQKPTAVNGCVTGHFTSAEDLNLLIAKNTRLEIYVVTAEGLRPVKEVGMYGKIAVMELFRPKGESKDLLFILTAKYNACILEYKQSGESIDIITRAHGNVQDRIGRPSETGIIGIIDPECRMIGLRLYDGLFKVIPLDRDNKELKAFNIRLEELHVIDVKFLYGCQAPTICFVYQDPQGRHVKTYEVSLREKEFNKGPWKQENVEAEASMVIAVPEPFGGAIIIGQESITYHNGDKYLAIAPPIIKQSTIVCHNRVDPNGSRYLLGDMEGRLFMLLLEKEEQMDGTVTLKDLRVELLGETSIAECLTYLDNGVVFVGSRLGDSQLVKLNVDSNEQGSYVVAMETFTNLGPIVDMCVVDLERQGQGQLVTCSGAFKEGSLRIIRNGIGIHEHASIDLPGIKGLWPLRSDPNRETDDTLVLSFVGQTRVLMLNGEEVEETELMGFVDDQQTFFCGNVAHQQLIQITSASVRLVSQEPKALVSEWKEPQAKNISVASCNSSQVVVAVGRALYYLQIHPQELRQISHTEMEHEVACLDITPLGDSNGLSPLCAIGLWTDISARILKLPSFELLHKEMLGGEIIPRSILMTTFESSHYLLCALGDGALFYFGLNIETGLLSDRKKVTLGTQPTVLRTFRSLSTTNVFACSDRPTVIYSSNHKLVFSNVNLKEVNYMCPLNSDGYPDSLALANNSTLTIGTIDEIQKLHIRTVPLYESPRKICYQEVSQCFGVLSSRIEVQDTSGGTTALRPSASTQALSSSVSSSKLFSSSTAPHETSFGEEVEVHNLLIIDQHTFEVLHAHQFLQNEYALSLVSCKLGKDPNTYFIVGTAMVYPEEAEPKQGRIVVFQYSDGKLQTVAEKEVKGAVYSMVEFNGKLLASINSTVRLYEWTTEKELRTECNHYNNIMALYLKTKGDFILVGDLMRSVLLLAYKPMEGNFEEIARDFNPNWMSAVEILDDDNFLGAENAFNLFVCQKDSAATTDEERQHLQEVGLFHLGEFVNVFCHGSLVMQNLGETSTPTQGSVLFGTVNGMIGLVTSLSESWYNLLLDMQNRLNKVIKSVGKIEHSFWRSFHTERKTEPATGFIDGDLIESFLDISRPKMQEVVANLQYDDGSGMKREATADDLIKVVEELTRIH

For the molecule `CCc1cc2c(cc1N1CCN(Cc3cccc(NC4CCC(=O)NC4=O)c3)CC1)C(C)(C)c1[nH]c3cc(C#N)ccc3c1C2=O` (stereo not drawn) [GT-07328, 8-(4-(3-((2,6-dioxopiperidin-3-yl)amino)benzyl)piperazin-1-yl)-9-ethyl-6,6-dimethyl-11-oxo-6,11-dihydro-5H-benzo[b]carbazole-3-carbonitrile], the “Degradation of substrate protein ALK (substrate protein remaining %)” value (shortened to “Degradation … (substrate protein remaining %)”) in assay [1] is “A (A is defined as 0% ≤ substrate protein remaining % ≤ 80%)”. Further, the IC50 is 100 to 500 nM in assay [2] and 10 to 50 nM in assay [3].

As to `COc1cc(N2CCC(N3CCN(Cc4cc(C5CCC(=O)NC5=O)cnc4F)CC3)CC2)ccc1Nc1ncc(Cl)c(Nc2ccccc2P(C)(C)=O)n1` (stereo not drawn) [GT-07611, 3-(5-((4-(1-(4-((5-chloro-4-((2-(dimethylphosphoryl)phenyl)amino)pyrimidin-2-yl)amino)-3-methoxyphenyl)piperidin-4-yl)piperazin-1-yl)methyl)-6-fluoropyridin-3-yl)piperidine-2,6-dione], the IC50 fell in the range of 500 to 1000 nM in assay [4], 10 to 50 nM in assay [2] and 1 to 10 nM in assay [3]. Moreover, the “Degradation … (substrate protein remaining %)” value in assay [1] is “A (A is defined as 0% ≤ substrate protein remaining % ≤ 80%)”.

As for `CCc1cc2c(cc1N1CCC(N3CCN(Cc4ccc(N5CCC(=O)NC5=O)nc4)CC3)CC1)C(C)(C)c1[nH]c3cc(C#N)ccc3c1C2=O` [GT-07312, 8-(4-(4-((6-(2,4-dioxotetrahydropyrimidin-1(2H)-yl)pyridin-3-yl)methyl)piperazin-1-yl)piperidin-1-yl)-9-ethyl-6,6-dimethyl-11-oxo-6,11-dihydro-5H-benzo[b]carbazole-3-carbonitrile], the “Degradation … (substrate protein remaining %)” value in assay [1] is listed as “A (A is defined as 0% ≤ substrate protein remaining % ≤ 80%)”. In addition, the IC50 in assay [5] was in the range of 500 to 1000 nM; in assay [2], 50 to 100 nM; in assay [3] it was 1 to 10 nM.

As for `Cc1cc(Nc2ncc(Cl)c(Nc3ccccc3S(=O)(=O)C(C)C)n2)c(OC(C)C)cc1C1CCN(Cc2ccnc(N3CCC(=O)NC3=O)c2)CC1` [GT-07596, 1-(4-((4-(4-((5-chloro-4-((2-(isopropylsulfonyl)phenyl)amino)pyrimidin-2-yl)amino)-5-isopropoxy-2-methylphenyl)piperidin-1-yl)methyl)pyridin-2-yl)dihydropyrimidine-2,4(1H,3H)-dione], the “Degradation … (substrate protein remaining %)” value in assay [1] is “A (A is defined as 0% ≤ substrate protein remaining % ≤ 80%)”. The IC50 fell in the range of 100 to 500 nM in assay [5], 100 to 500 nM in assay [2] and 10 to 50 nM in assay [3].

Regarding `COc1cc(N2CCN(Cc3cccc(N4CCC(=O)NC4=O)c3)CC2)ccc1Nc1ncc(Cl)c(Nc2ccccc2P(C)(C)=O)n1` [GT-07348, 1-(3-((4-(4-((5-chloro-4-((2-(dimethylphosphoryl)phenyl)amino)pyrimidin-2-yl)amino)-3-methoxyphenyl)piperazin-1-yl)methyl)phenyl)dihydropyr imidine-2,4(1H,3H)-dione], the IC50 in assay [4] was in the range of 500 to 1000 nM; in assay [2], 100 to 500 nM; in assay [3], 10 to 50 nM. Moreover, the “Degradation … (substrate protein remaining %)” value in assay [1] was “A (A is defined as 0% ≤ substrate protein remaining % ≤ 80%)”.

For the molecule `CCc1cc2c(cc1N1CCN(Cc3cccc(N4CCC(=O)NC4=O)c3)CC1)C(C)(C)c1[nH]c3cc(C#N)ccc3c1C2=O` [GT-07325, 8-(4-(3-(2,4-dioxotetrahydropyrimidin-1(2H)-yl)benzyl)piperazin-1-yl)-9-ethyl-6,6-dimethyl-11-oxo-6,11-dihydro-5H-benzo[b]carbazole-3-carbonitrile], in assay [1], the “Degradation … (substrate protein remaining %)” value is “A (A is defined as 0% ≤ substrate protein remaining % ≤ 80%)”. Further, the IC50 in assay [2] was 100 to 500 nM; in assay [3], 10 to 50 nM.

Consider `COc1cc(N2CCN(Cc3ccc(N4CCC(=O)NC4=O)cn3)CC2)ccc1Nc1ncc(Cl)c(Nc2ccccc2P(C)(C)=O)n1` [GT-07349, 1-(6-((4-(4-((5-chloro-4-((2-(dimethylphosphoryl)phenyl)amino)pyrimidin-2-yl)amino)-3-methoxyphenyl)piperazin-1-yl)methyl)pyridin-3-yl)dihydropyrimidine-2,4(1H,3H)-dione], for which the IC50 in assay [4] lay within 500 to 1000 nM; in assay [2], 500 to 1000 nM; in assay [3], 50 to 100 nM. In addition, the “Degradation … (substrate protein remaining %)” value in assay [1] was “A (A is defined as 0% ≤ substrate protein remaining % ≤ 80%)”.

With `CCc1cc2c(cc1N1CCN(Cc3ccc(N4CCC(=O)NC4=O)cn3)CC1)C(C)(C)c1[nH]c3cc(C#N)ccc3c1C2=O` [GT-07326, 8-(4-((5-(2,4-dioxotetrahydropyrimidin-1(2H)-yl)pyridin-2-yl)methyl)piperazin-1-yl)-9-ethyl-6,6-dimethyl-11-oxo-6,11-dihydro-5H-benzo[b]carbazole-3-carbonitrile], the “Degradation … (substrate protein remaining %)” value in assay [1] is “A (A is defined as 0% ≤ substrate protein remaining % ≤ 80%)”. Moreover, the IC50 in assay [2] was 100 to 500 nM; in assay [3], 10 to 50 nM.

Take `Cc1cc(Nc2ncc(Cl)c(Nc3ccccc3S(=O)(=O)C(C)C)n2)c(OC(C)C)cc1C1CCN(Cc2cc(N3CCC(=O)NC3=O)ncc2F)CC1` [GT-07595, 1-(4-((4-(4-((5-chloro-4-((2-(isopropylsulfonyl)phenyl)amino)pyrimidin-2-yl)amino)-5-isopropoxy-2-methylphenyl)piperidin-1-yl)methyl)-5-fluoropyridin-2-yl)dihydropyrimidine-2,4(1H,3H)-dione]: the “Degradation … (substrate protein remaining %)” value in assay [1] is recorded as “A (A is defined as 0% ≤ substrate protein remaining % ≤ 80%)”. The values for the IC50 in assay [2] and in assay [3] were 500 to 1000 nM and 100 to 500 nM, respectively.

On to `COc1cc(N2CCN(Cc3ccc(N4CCC(=O)NC4=O)cc3F)CC2)ccc1Nc1ncc(Cl)c(Nc2ccccc2P(C)(C)=O)n1` [GT-07347, 1-(4-((4-(4-((5-chloro-4-((2-(dimethylphosphoryl)phenyl)amino)pyrimidin-2-yl)amino)-3-methoxyphenyl)piperazin-1-yl)methyl)-3-fluorophenyl)dihydropyrimidine-2,4(1H,3H)-dione], for which the IC50 in assay [4] fell in the range of 100 to 500 nM; in assay [2], 100 to 500 nM; in assay [3], 10 to 50 nM. In assay [1], the “Degradation … (substrate protein remaining %)” value is on record as “A (A is defined as 0% ≤ substrate protein remaining % ≤ 80%)”.

Consider `Cc1cc(Nc2ncc(Cl)c(Nc3ccccc3S(=O)(=O)C(C)C)n2)c(OC(C)C)cc1C1CCN(Cc2cccc(NC3CCC(=O)NC3=O)c2)CC1` (stereo not drawn) [GT-07594, 3-((3-((4-(4-((5-chloro-4-((2-(isopropylsulfonyl)phenyl)amino)pyrimidin-2-yl)amino)-5-isopropoxy-2-methylphenyl)piperidin-1-yl)methyl)phenyl)amino)pip eridine-2,6-dione], for which the “Degradation … (substrate protein remaining %)” value in assay [1] is on record as “A (A is defined as 0% ≤ substrate protein remaining % ≤ 80%)”. For the same molecule, the IC50 was in the range of 100 to 500 nM in assay [2] and 50 to 100 nM in assay [3].
